Experimental data from ChEMBL document CHEMBL1201862, “PubChem BioAssay data set” (2004).
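Exposure lasted 48 hours, with cells grown in 96-well plates and compounds tested at five concentrations. Abbreviation: GI50, concentration required for 50% inhibition of growth.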 Activity calls are given as the source filed them. Cut-off read from the data, not from the text of the source: active = GI50 up to about 1.1 µM and inactive = higher.

What was measured:
Experiment in all cases: NCI tumour cell line growth inhibition, 48 h
COLO 205 = test system: COLO 205
SNB-19 = test system: SNB-19
SF-268 = test system: SF-268
ACHN = test system: ACHN
U-251 = test system: U-251
HOP-92 = test system: HOP-92
EKVX = test system: EKVX
SNB-75 = test system: SNB-75
TK-10 = test system: TK-10
OVCAR-5 = test system: OVCAR-5
SK-OV-3 = test system: SK-OV-3
IGROV-1 = test system: IGROV-1
UO-31 = test system: UO-31
NCI-H460 = test system: NCI-H460
OVCAR-4 = test system: OVCAR-4
HOP-62 = test system: HOP-62
SW-620 = test system: SW-620

SMILES | GI50 (COLO 205) | GI50 (SNB-19) | GI50 (SF-268) | GI50 (ACHN) | GI50 (U-251) | GI50 (HOP-92) | GI50 (EKVX) | GI50 (SNB-75) | GI50 (TK-10) | GI50 (OVCAR-5) | GI50 (SK-OV-3) | GI50 (IGROV-1) | GI50 (UO-31) | GI50 (NCI-H460) | GI50 (OVCAR-4) | GI50 (HOP-62) | GI50 (SW-620)
O=C1/C(=C/c2ccccc2)CN(C(=O)Oc2ccc([N+](=O)[O-])cc2)C/C1=C\c1ccccc1 | 7.83 µM (inactive) | 6.65 µM (inactive) | 5.09 µM (inactive) | 6.65 µM (inactive) | 1.77 µM (inactive) | > 10 µM (inactive) | > 10 µM (inactive) | 4.4 µM (inactive) | > 10 µM (inactive) | > 10 µM (inactive) | > 10 µM (inactive) | 6.84 µM (inactive) | 9.77 µM (inactive) | 6.03 µM (inactive) | 2.56 µM (inactive) | > 10 µM (inactive) | 0.59 µM (active)
O=c1[nH]c2cc([N+](=O)[O-])ccc2nc1/C(=N/Nc1ccccc1)C(O)c1ccccc1Cl (stereo not given) | 39.7 µM (inactive) | > 100 µM (inactive) | > 100 µM (inactive) | 17.5 µM (inactive) | 58.6 µM (inactive) | > 100 µM (inactive) | 67.3 µM (inactive) | 28.2 µM (inactive) | > 100 µM (inactive) | 95.5 µM (inactive) | > 100 µM (inactive) | 43.9 µM (inactive) | 21.1 µM (inactive) | 49.2 µM (inactive) | 79.8 µM (inactive) | 62.5 µM (inactive) | 41.9 µM (inactive)
COc1cccc(C2c3cc4c(cc3OC(O)(CO)C2C(=O)O)OCO4)c1.COc1cccc(C2c3cc4c(cc3OC3(O)COC(=O)C23)OCO4)c1 (stereo not given) | > 100 µM (inactive) |  | 40.4 µM (inactive) | 49.5 µM (inactive) | 22.2 µM (inactive) | 30.6 µM (inactive) | 42.8 µM (inactive) | 14.5 µM (inactive) | > 100 µM (inactive) | > 100 µM (inactive) | 91.8 µM (inactive) | 62.7 µM (inactive) | 64.3 µM (inactive) | 21.2 µM (inactive) | 37 µM (inactive) | > 100 µM (inactive) | 82.2 µM (inactive)
COc1ccccc1NC(=O)C(CC(C(=O)Nc1ccccc1OC)/C(C)=N/NC(=O)c1ccccc1O)/C(C)=N/NC(=O)c1ccccc1O (stereo not given) | > 100 µM (inactive) | 61.7 µM (inactive) | > 100 µM (inactive) | 98.6 µM (inactive) | 59 µM (inactive) | 26 µM (inactive) | 72.9 µM (inactive) | 96.6 µM (inactive) | > 100 µM (inactive) | > 100 µM (inactive) | > 100 µM (inactive) | > 100 µM (inactive) | 40.4 µM (inactive) | 57.9 µM (inactive) | 51.8 µM (inactive) | > 100 µM (inactive) | 88.5 µM (inactive)
CC(=O)N1CCc2[nH]c3ccccc3c2CC1 | > 100 µM (inactive) |  |  | > 100 µM (inactive) | > 100 µM (inactive) | 31.5 µM (inactive) | > 100 µM (inactive) | 19.9 µM (inactive) | > 100 µM (inactive) | > 100 µM (inactive) | > 100 µM (inactive) | > 100 µM (inactive) |  | > 100 µM (inactive) | > 100 µM (inactive) | > 100 µM (inactive) | > 100 µM (inactive)
O=[N+]([O-])c1ccc(-c2ccc(/C=N/n3c(S)nnc3-c3ccc(Cl)cc3)o2)cc1 | 32.1 µM (inactive) | 23 µM (inactive) | 24.7 µM (inactive) | 26 µM (inactive) | 21.6 µM (inactive) | > 42 µM (inactive) | > 100 µM (inactive) | 33.3 µM (inactive) | 31 µM (inactive) | > 100 µM (inactive) | > 40.7 µM (inactive) | > 81.3 µM (inactive) | > 24.2 µM (inactive) | 21.5 µM (inactive) | > 38.1 µM (inactive) | 17.5 µM (inactive) | 29 µM (inactive)
Cc1cc(CC(O)c2ccc(Cl)c(Cl)c2)nc(O)n1 (stereo not given) | 31 µM (inactive) | 30.5 µM (inactive) | 38.5 µM (inactive) | 31.3 µM (inactive) | 29.1 µM (inactive) | 18 µM (inactive) | 29.8 µM (inactive) | 17.7 µM (inactive) | 86.9 µM (inactive) | 69 µM (inactive) | 35.2 µM (inactive) |  | 54.1 µM (inactive) | 34.8 µM (inactive) | 48.9 µM (inactive) | 25.6 µM (inactive) | 36.1 µM (inactive)
Cc1ccc(Nc2nc(-c3ccc(-c4ccc([N+](=O)[O-])cc4)o3)cs2)cc1 | 40 µM (inactive) | > 100 µM (inactive) | > 100 µM (inactive) | 34 µM (inactive) | 35 µM (inactive) | 37.2 µM (inactive) |  | 50.5 µM (inactive) | 25.4 µM (inactive) | 59 µM (inactive) | > 100 µM (inactive) | 22.7 µM (inactive) | 8.51 µM (inactive) | 44 µM (inactive) | 63.1 µM (inactive) | > 100 µM (inactive) | 95.3 µM (inactive)
